From PubChem BioAssay AID236 (DTP/NCI, 2004) come the findings set out here.

Molecules are shown by their SMILES. Values joined by “and” are separate entries in the source; they are usually repeats but may differ in a detail not shown here. Identical values can stand only once. Inconclusive results and toxic doses are left out.

This experiment has as its system AK4 lymphoid leukemia ip, C3AKF1 mice, survival. The experiment can be described thus: NCI In Vivo Anticancer Drug Screen. Data for tumor model AK4 Lymphoid Leukemia (intraperitoneal) in C3AKF1 (CHKRF1) mice. To be noted: endpoint: median survival time, higher = longer survival. On the procedure: The antitumor activity of compounds was measured in mice bearing transplantable tumors. Survival or tumor size were measured and the results are expressed as the measurement made in the treated group (T) divided by the measurement made in the vehicle treated control group (C). The tumor model used in this assay is AK4 Lymphoid Leukemia (intraperitoneal) in C3AKF1 (CHKRF1) mice

[1] abbreviates: dose: 10.0 mg/kg/injection, schedule: Q01DX010 (ip), vehicle: saline.
Where [2] appears, read: dose: 20.0 mg/kg/injection, schedule: Q01DX010 (ip), vehicle: saline.
The mark [3] stands for this setting: dose: 100.0 mg/kg/injection, schedule: Q01DX010 (ip), vehicle: saline.
The mark [4] stands for this setting: dose: 200.0 mg/kg/injection, schedule: Q01DX010 (ip), vehicle: saline.
Where [5] appears, read: dose: 25.0 mg/kg/injection, schedule: Q01DX010 (ip), vehicle: saline.
The mark [6] stands for this setting: dose: 50.0 mg/kg/injection, schedule: Q01DX010 (ip), vehicle: saline.
The mark [7] stands for this setting: dose: 3.13 mg/kg/injection, schedule: Q01DX010 (ip), vehicle: saline.
Setting [8] is: dose: 12.5 mg/kg/injection, schedule: Q01DX010 (ip), vehicle: saline.
The mark [9] stands for this setting: dose: 6.25 mg/kg/injection, schedule: Q01DX010 (ip), vehicle: saline.
[10] abbreviates: dose: 62.5 mg/kg/injection, schedule: Q01DX010 (ip), vehicle: saline.
Where [11] appears, read: dose: 125.0 mg/kg/injection, schedule: Q01DX010 (ip), vehicle: saline.
[12] abbreviates: dose: 250.0 mg/kg/injection, schedule: Q01DX010 (ip), vehicle: saline.

For the compound `CCC(=O)O[C@H]1CC[C@H]2[C@@H]3CCC4=CC(=O)CC[C@]4(C)[C@H]3CC[C@]12C`, the T/C was 87 % of control (dose: 125.0 mg/kg/injection, schedule: Q01DX010 (sc), vehicle: steriod suspending solution); 87 % of control (dose: 250.0 mg/kg/injection, schedule: Q01DX010 (sc), vehicle: steriod suspending solution); 93 % of control (dose: 500.0 mg/kg/injection, schedule: Q01DX010 (sc), vehicle: steriod suspending solution); 87 % of control (dose: 1000.0 mg/kg/injection, schedule: Q01DX010 (sc), vehicle: steriod suspending solution).
As for `O=C(O)c1[nH]c(=O)[nH]c(=O)c1F`, the T/C reads like this: (dose: 1.25 mg/kg/injection, schedule: Q01DX010 (ip), vehicle: saline) 105 % of control; (dose: 2.5 mg/kg/injection, schedule: Q01DX010 (ip), vehicle: saline) 122 % of control; under setting [1], 155 % of control and 205 % of control; under setting [2], 111 % of control.
As for `CN(C)/N=N/c1nc[nH]c1C(N)=O`, the T/C under setting [3] was 155 % of control and 166 % of control; the T/C under setting [4] is 177 % of control and 205 % of control.
For the compound `Cn1c(N)nc2nc[nH]c2c1=S`, the T/C was 100 % of control (dose: 5.0 mg/kg/injection, schedule: Q01DX010 (ip), vehicle: saline); 100 % of control and 122 % of control under setting [1]; 88 % of control and 105 % of control under setting [2]; 88 % of control and 100 % of control (dose: 40.0 mg/kg/injection, schedule: Q01DX010 (ip), vehicle: saline); 111 % of control (dose: 80.0 mg/kg/injection, schedule: Q01DX010 (ip), vehicle: saline).
As for `CC[C@@H](c1ccc(O)cc1)[C@@H](CC)c1ccc(O)cc1`, the T/C was 100 % of control (dose: 25.0 mg/kg/injection, schedule: Q01DX010 (ip), vehicle: water); 87 % of control (dose: 50.0 mg/kg/injection, schedule: Q01DX010 (ip), vehicle: water); 87 % of control (dose: 100.0 mg/kg/injection, schedule: Q01DX010 (ip), vehicle: water); 87 % of control (dose: 200.0 mg/kg/injection, schedule: Q01DX010 (ip), vehicle: water).
`CSc1ncnc2nc[nH]c12`: the T/C under setting [5] was 100 % of control, the T/C under setting [6] is 100 % of control, the T/C under setting [3] was 100 % of control and the T/C under setting [4] is 100 % of control.
Regarding `N=[N+]=CC(=O)OCC(N)C(=O)O` (stereo not given), the T/C under setting [7] was 122 % of control; the T/C under setting [8] was 113 % of control; the T/C under setting [5] was 100 % of control and 86 % of control.
Turning to `CS(=O)(=O)OCCCCOS(C)(=O)=O`, the T/C was 87 % of control and 100 % of control under setting [9]; 100 % of control and 87 % of control under setting [8]; 100 % of control under setting [5]; 87 % of control and 100 % of control under setting [6].
For `Cc1cc2nc3c(=O)[nH]c(=O)nc-3n(CC(O)C(O)C(O)C(O)CO)c2cc1C` (stereo not given), the T/C runs as follows: under setting [7], 105 % of control; under setting [9], 111 % of control; under setting [8], 105 % of control; under setting [5], 100 % of control and 105 % of control; under setting [4], 88 % of control.
On to `CCN(CCNc1ccc(C)c2sc3cc(Cl)ccc3c(=O)c12)CC(C)O` (stereo not given), for which the T/C runs as follows: (dose: 31.3 mg/kg/injection, schedule: Q01DX010 (ip), vehicle: saline) 94 % of control; under setting [10], 88 % of control and 94 % of control; under setting [11], 94 % of control; under setting [12], 88 % of control.
In the case of `CN(C)c1nc(N(C)C)nc(N(C)C)n1`, the T/C by setting is: (dose: 18.8 mg/kg/injection, schedule: Q01DX010 (ip), vehicle: saline) 94 % of control; (dose: 37.5 mg/kg/injection, schedule: Q01DX010 (ip), vehicle: saline) 100 % of control; (dose: 75.0 mg/kg/injection, schedule: Q01DX010 (ip), vehicle: saline) 94 % of control; (dose: 150.0 mg/kg/injection, schedule: Q01DX010 (ip), vehicle: saline) 100 % of control.
For the compound `Oc1cc(CN(CCCl)CCCl)c(O)cc1CN(CCCl)CCCl`, the T/C under setting [1] is 100 % of control.
Consider `Nc1c(Br)cc2c(c1Br)Cc1cc([N+](=O)[O-])ccc1-2`, for which the T/C is 100 % of control and 105 % of control under setting [10]; 94 % of control and 100 % of control under setting [11]; 94 % of control and 105 % of control under setting [12]; 94 % of control (dose: 500.0 mg/kg/injection, schedule: Q01DX010 (ip), vehicle: saline).
With `O[C@H](CN1CC1)[C@@H](O)CN1CC1`, the T/C was 164 % of control (dose: 250.0 micrograms/kg/injection, schedule: Q01DX010 (ip), vehicle: saline) and 105 % of control (dose: 1000.0 micrograms/kg/injection, schedule: Q01DX010 (ip), vehicle: saline).
